Experimental findings from US9115201B2 (priority 2008, dated 2015) are described below.

Common to all, as to set-up: key: S, oseltamivir sensitive; R, oseltamivir resistant
One test concerns NA of A/Udorn/72. The format is biochemical, influenza H3N2 A/Udorn/72.
In test [1] the test system is NA of A/New Caledonia/20/99. It counts as biochemical, influenza H1N1 A/New Caledonia/20/99.
A further test deals with NA of A/Vietnam/1203/04 (Influenza A virus, UniProt Q6DPL2). It counts as biochemical, influenza H5N1 A/Vietnam/1203/04.
Sequence of NA of A/Vietnam/1203/04 (Q6DPL2 whole entry, looked up): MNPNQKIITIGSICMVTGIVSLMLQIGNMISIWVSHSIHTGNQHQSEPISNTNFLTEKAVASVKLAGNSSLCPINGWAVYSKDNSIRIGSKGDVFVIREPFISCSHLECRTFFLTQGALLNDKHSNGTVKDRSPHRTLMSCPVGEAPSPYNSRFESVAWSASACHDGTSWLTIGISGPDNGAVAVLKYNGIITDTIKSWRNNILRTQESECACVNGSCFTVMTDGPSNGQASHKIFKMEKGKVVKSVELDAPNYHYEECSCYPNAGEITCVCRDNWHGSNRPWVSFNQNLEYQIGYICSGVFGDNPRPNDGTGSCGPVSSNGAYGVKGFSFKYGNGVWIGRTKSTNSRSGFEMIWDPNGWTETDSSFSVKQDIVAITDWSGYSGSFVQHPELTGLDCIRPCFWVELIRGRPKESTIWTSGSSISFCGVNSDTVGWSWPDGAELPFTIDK
Test [2] relates to NA of A/Vietnam/HN/30408/05. The format is biochemical, influenza H5N1 A/Vietnam/HN/30408/05.
For another test, the system named is NA of A/Indonesia/05. It counts as biochemical, influenza H5N1 A/Indonesia/05.
The test system of test [3] is NA of A/Egypt-2/14724/NAMRU3/06. It counts as biochemical, influenza H5N1 A/Egypt-2/14724/NAMRU3/06.
Test [4] has as its system NA of A/Egypt/14725/NAMRU3/06. It counts as biochemical, influenza H5N1 A/Egypt/14725/NAMRU3/06.
The subject of another test is NA of A/Hong Kong/156/97. The format is biochemical, influenza H5N1 A/Hong Kong/156/97.
In test [5] the test system is NA of A/duck/Hong Kong/380.5/01. The format is biochemical, influenza H5N1 A/duck/Hong Kong/380.5/01.

Turning to `CCOC(=O)C1=C[C@@H](OC(CC)CC)[C@H](NC(C)=O)[C@@H](N)C1` [Oseltamivir], the “Oseltamivir sensitivity of the virus” value in the test with NA of A/Udorn/72 is recorded as “S^§”; in test [1] it was “S”; at NA of A/Vietnam/1203/04, “S”; in test [2], “R”; in the test with NA of A/Indonesia/05, “S”; in test [3] it was “R”. Further, the “Oseltamivir sensitivity of the virus” value is “R” in test [4], “S” with NA of A/Hong Kong/156/97 and “R” in test [5].
